Laboratory results: patent US11357742B2, “Methods for treating cancer” (X4 Pharmaceuticals, Inc., priority 2015, dated 2022)

Experiments:
[1] = tested on: renal cell carcinoma (RCC) xenografts; details: cited from earlier work
mir-30a and mir-30c = details: 786-0 xenograft tumor, after 8 days of treatment
Text: Data is presented as mir-30a or mir-30c expression relative to the mean control value (left side) and relative HIF-2α RNA expression.

[2] = oral; see current product label; cited from earlier work
[3] = cited from earlier work
[4] = tested on: 786-0 and A498 RCC xenografts; experiment: Murine models with human RCC cell line xenografts (tumor size, IHC, IF, flow cytometry); format: in vivo, mice; details: 786-0 and A498 xenografts
Method: With each of the human cell lines, 1×10^7 tumor cells were implanted subcutaneously in the flanks of 36 nude/beige mice and tumors allowed to grow to roughly 7 mm in diameter. […] Therefore, on day 7, the mice were sacrificed and the tumors were measured and immediately excised and divided into three parts. One part of each tumor was paraffin-embedded for dual color immunofluorescence. Another part was mechanically disaggregated and treated with collagenase/DNAse to generate a single cell suspension for flow cytometry. The third part was frozen for future pharmacokinetic analysis. Microscope slides were made from the paraffin-embedded tumor tissue, which were stained with antibodies against CD11b, Gr-1, and FAP. The number of infiltrating CD11b+/Gr-1+ MDSC and FAP+ fibroblasts present in the tumor tissue was then determined by immunofluorescence (IF) as previously described (1).
The disaggregated tumor specimens were analyzed for CD11b+/Gr-1+ MDSC and FAP+ fibroblasts by flow cytometry. The fraction of both populations expressing CXCR4 were also determined. […] One part was disaggregated into single cell suspensions and analyzed by flow cytometry as above for MDSC. […] Finally, a bone marrow (BM) sample was generated by extruding marrow from an excised femur with a syringe filled with saline and analyzed by flow cytometry for MDSC.

[5] = concurrent administration with sunitinib

In the case of `CC(C)(C)C[C@H]1N[C@@H](C(=O)NCC[C@H](O)CO)[C@H](c2ccc(F)c(Cl)c2)[C@@]12C(=O)Nc1cc(Cl)c(F)cc12` [MI-319], the “development of sunitinib resistance” value [1, 5] is given as “prevented”, the “influx of MDSC” value [1, 5] is given as “prevented” and the HIF-2 expression ([1]; in vivo) is given as “suppresses”.

In the case of `CNC(=O)c1ccccc1Sc1ccc2c(/C=C/c3ccccn3)n[nH]c2c1` [axitinib, N-methyl-2-[3-((E)-2-pyridin-2-yl-vinyl)-1H-indazol-6-ylsulfanyl]-benzamide], the “mir-30a and mir-30c expression” value (mir-30a and mir-30c) is given as “suppressed”, the “effect of food on absorption” value [2] is given as “not altered by food” and the “partition coefficient (n-octanol/water)” value [3] is given as 3.5. The “effects on tumor growth” value ([4]; nude/beige mice, day 7, axitinib 30 mg/kg daily by gavage) was “no” and the “MDSC infiltration of tumors” value ([4]; CD11b+/Gr-1+ cells) was “extensive MDSC infiltration”.
